# Assay: dissolution rate of saccharide or sugar alcohol, 6-vessel dissolution tester
# Type: physicochemical
# Settings: 2 g in desalted water 500 mL, 37° C., paddle 50 min^−1; rate constant k per surface area
# Protocol: In the present invention, the “dissolution rate” is obtained by using a 6-vessel dissolution tester (NTR-6100, Toyama Sangyo Co., Ltd.). The paddle rotation speed was 50 min^−1, and saccharide or sugar alcohol was added by 2 g to desalted water (500 mL), which is a test solution, heated to 37° C. Samples were taken at given time intervals after addition, changes in the dry weight of the samples per unit time were calculated, and dissolution rate constant k was calculated by the Noyes-Whitney equation. The dissolution rate constant k was converted to value per surface area of each saccharide or sugar alcohol and the obtained value was taken as dissolution rate [1/min·m^2]. As the specific surface area, the value measured by a laser diffraction particle size analyzer [Mastersizer] of Malvern Instruments Ltd. was used. The tablets obtained in the Examples and Comparative Examples were measured for hardness, disintegration time in the oral cavity, disintegration time (ODT) by the following test methods. In addition, the dissolution rate of saccharide and sugar alcohol used in the Examples and Comparative Examples was measured. • (1) The hardness was measured by a tablet hardness tester (WHT-2ME, Pharma Test). The test was performed using 3 or 10 tablets, and the average value is shown. • (2) As for the disintegration time in the oral cavity, the tablet of the present invention was placed in the oral cavity of a healthy adult without water, and the time necessary for complete disintegration of the tablet with only saliva was measured. • (3) The disintegration time (ODT) was measured by an Orally Disintegrating Tablet Tester (ODT-101, Toyama Sangyo Co., Ltd.). As for the measurement conditions, a weight (15 g, weight diameter 15 mm) was used at a rotating speed of 50 rpm, and an average of 3 measures was taken. • (4) The “dissolution rate” was measured by using a 6-vessel dissolution tester (NTR-6100, Toyama Sangyo Co., Ltd.). The paddle rotation speed was 50 min^−1, and saccharide or sugar alcohol was added by 2 g to desalted water (500 mL), which is a test solution, heated to 37° C. Samples were taken at given time intervals after addition, changes in the dry weight of the samples per unit time were calculated, and dissolution rate constant k was calculated by the Noyes-Whitney equation. The dissolution rate constant k was converted to value per the surface area of each saccharide or sugar alcohol and the obtained value was taken as dissolution rate [1/min·m^2]. As the specific surface area, the value measured by a laser diffraction particle size analyzer [Mastersizer] of Malvern Instruments Ltd. was used.
row,SMILES,dissolution rate
1,OC[C@@H](O)[C@@H](O)CO [Erythritol],11.99 1/min·m^2
2,OC[C@H]1O[C@@H](O[C@H]2[C@H](O)[C@@H](O)C(O)O[C@@H]2CO)[C@H](O)[C@@H](O)[C@H]1O (stereo partly drawn) [Lactose],5.68 1/min·m^2
3,OC[C@H]1O[C@@](CO)(O[C@H]2O[C@H](CO)[C@@H](O)[C@H](O)[C@H]2O)[C@@H](O)[C@@H]1O [Purification sucrose],2.80 1/min·m^2
4,OC[C@@H](O)[C@H](O)[C@@H](O)CO [Xylitol],3.57 1/min·m^2
5,OC[C@@H](O)[C@@H](O)[C@H](O)[C@H](O)CO [α-form mannitol],4.62 1/min·m^2
6,OC[C@@H](O)[C@@H](O)[C@H](O)[C@H](O)CO [β-form mannitol],2.28 1/min·m^2

# — US20100233278A1, “RAPIDLY DISINTEGRATING SOLID PREPARATION” (priority 2007, published 2010)
